Experimental data published in patent US7875647B2, “Heteroaryl-pyrazole derivatives as cannabinoid CB1 receptor antagonists” (Green Cross Corporation, priority 2006, dated 2011).

Target: T1, Cannabinoid-1 receptor (CB1R) (Rattus norvegicus, UniProt P20272)
T1 construct: The tissue obtained from the brain of SD rats was homogenized; from tissue; host or cells: brain of SD rats (membrane pellet of the homogenate)
Experiment: Cannabinoid-1 receptor (CB1R) binding affinity assay ([3H]CP-55940, rat CB-1 receptor binding protocol)
Details: IC50(nM), brain tissue of SD rats, [3H]CP-55940, 30° C. 60 min

T1 sequence (P20272 whole entry): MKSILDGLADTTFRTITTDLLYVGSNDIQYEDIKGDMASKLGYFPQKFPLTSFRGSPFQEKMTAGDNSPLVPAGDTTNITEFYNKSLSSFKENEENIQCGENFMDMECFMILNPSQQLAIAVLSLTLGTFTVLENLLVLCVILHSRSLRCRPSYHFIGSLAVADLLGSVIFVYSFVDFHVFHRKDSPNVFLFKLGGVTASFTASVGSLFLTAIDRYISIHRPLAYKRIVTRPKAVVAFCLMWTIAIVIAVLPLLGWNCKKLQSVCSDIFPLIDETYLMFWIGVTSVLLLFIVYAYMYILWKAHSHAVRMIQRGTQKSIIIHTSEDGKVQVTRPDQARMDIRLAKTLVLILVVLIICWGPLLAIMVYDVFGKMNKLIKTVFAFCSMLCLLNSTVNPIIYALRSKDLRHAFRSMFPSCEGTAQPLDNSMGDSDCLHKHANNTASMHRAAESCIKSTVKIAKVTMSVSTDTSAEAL

SMILES	IC50
CCCCc1cnc(-c2nn(-c3ccc(Cl)cc3Cl)c(-c3ccc(Cl)cc3)c2C)o1 [Example 639, 5-butyl-2-(5-(4-chlorophenyl)-1-(2,4-dichlorophenyl)-4-methyl-1H-pyrazol-3-yl)oxazole]	57.2 nM
Cc1c(-c2nc3c(o2)CCCC3)nn(-c2ccc(Cl)cc2Cl)c1-c1ccc(Cl)cc1 [Example 642, 2-(5-(4-chlorophenyl)-1-(2,4-dichlorophenyl)-4-methyl-1H-pyrazol-3-yl)-4,5,6,7-tetrahydrobenzo[d]oxazole]	44.2 nM
Cc1c(-c2ncc(C(C)(C)C)o2)nn(-c2ccc(Cl)cc2Cl)c1-c1ccc(Cl)cc1 [Example 644, 5-tert-butyl-2-(5-(4-chlorophenyl)-1-(2,4-dichlorophenyl)-4-methyl-1H-pyrazol-3-yl)oxazole]	14.2 nM

Same assay, conditions: brain tissue of SD rats, [3H]CP-55940, 30° C. 60 min; read-out: IC50

SMILES	IC50
Cc1c(-c2nnc(C3(C(F)(F)F)CC3)o2)nn(-c2ccc(Cl)cc2Cl)c1-c1ccc(Cl)cc1 [Example 132, 2-(5-(4-chlorophenyl)-1-(2,4-dichlorophenyl)-4-methyl-1H-pyrazol-3-yl)-5-(1-(trifluoromethyl)cyclopropyl)-1,3,4-oxadiazole]	8.53 nM
Cc1c(-c2nc(C3CCCCC3)n(C)n2)nn(-c2ccc(Cl)cc2Cl)c1-c1ccc(Cl)cc1 [Example 624, 3-(5-(4-chlorophenyl)-1-(2,4-dichlorophenyl)-4-methyl-1H-pyrazol-3-yl)-5-cyclohexyl-1-methyl-1H-1,2,4-triazole]	388 nM
Cc1c(-c2nc(C3CC3)n(C)n2)nn(-c2ccc(Cl)cc2Cl)c1-c1ccc(Cl)cc1 [Example 628, 3-(5-(4-chlorophenyl)-1-(2,4-dichlorophenyl)-4-methyl-1H-pyrazol-3-yl)-5-cyclopropyl-1-methyl-1H-1,2,4-triazole]	904 nM
CCn1nc(-c2nn(-c3ccc(Cl)cc3Cl)c(-c3ccc(Cl)cc3)c2C)nc1C1CC1 [Example 629, 3-(5-(4-chlorophenyl)-1-(2,4-dichlorophenyl)-4-methyl-1H-pyrazol-3-yl)-5-cyclopropyl-1-ethyl-1H-1,2,4-triazole]	301 nM
Cc1c(-c2nc(C3CC3)n(C(C)C)n2)nn(-c2ccc(Cl)cc2Cl)c1-c1ccc(Cl)cc1 [Example 630, 3-(5-(4-chlorophenyl)-1-(2,4-dichlorophenyl)-4-methyl-1H-pyrazol-3-yl)-5-cyclopropyl-1-isopropyl-1H-1,2,4-triazole]	573 nM
CCC(C)c1nc(-c2nn(-c3ccc(Cl)cc3Cl)c(-c3ccc(Cl)cc3)c2C)nn1CC (centres unmarked) [Example 632, 5-sec-butyl-3-(5-(4-chlorophenyl)-1-(2,4-dichlorophenyl)-4-methyl-1H-pyrazol-3-yl)-1-ethyl-1H-1,2,4-triazole]	834 nM
CCC(C)c1nc(-c2nn(-c3ccc(Cl)cc3Cl)c(-c3ccc(Cl)cc3)c2C)nn1C(C)C (centres unmarked) [Example 633, 5-sec-butyl-3-(5-(4-chlorophenyl)-1-(2,4-dichlorophenyl)-4-methyl-1H-pyrazol-3-yl)-1-isopropyl-1H-1,2,4-triazole]	60.9 nM
Cc1c(-c2nc(C(C)C)n(C)n2)nn(-c2ccc(Cl)cc2Cl)c1-c1ccc(Cl)cc1 [Example 634, 3-(5-(4-chlorophenyl)-1-(2,4-dichlorophenyl)-4-methyl-1H-pyrazol-3-yl)-5-isopropyl-1-methyl-1H-1,2,4-triazole]	289 nM
CCn1nc(-c2nn(-c3ccc(Cl)cc3Cl)c(-c3ccc(Cl)cc3)c2C)nc1C(C)C [Example 635, 3-(5-(4-chlorophenyl)-1-(2,4-dichlorophenyl)-4-methyl-1H-pyrazol-3-yl)-5-isopropyl-1-ethyl-1H-1,2,4-triazole]	712 nM
Cc1c(-c2nc(C(C)C)n(C(C)C)n2)nn(-c2ccc(Cl)cc2Cl)c1-c1ccc(Cl)cc1 [Example 636, 3-(5-(4-chlorophenyl)-1-(2,4-dichlorophenyl)-4-methyl-1H-pyrazol-3-yl)-1,5-diisopropyl-1H-1,2,4-triazole]	851 nM
Cc1c(-c2ncc(C3CCCCC3)o2)nn(-c2ccc(Cl)cc2Cl)c1-c1ccc(Cl)cc1 [Example 638, 2-(5-(4-chlorophenyl)-1-(2,4-dichlorophenyl)-4-methyl-1H-pyrazol-3-yl)-5-cyclohexyloxazole]	93.9 nM
CCc1cnc(-c2nn(-c3ccc(Cl)cc3Cl)c(-c3ccc(Cl)cc3)c2C)o1 [Example 640, 2-(5-(4-chlorophenyl)-1-(2,4-dichlorophenyl)-4-methyl-1H-pyrazol-3-yl)-5-ethyloxazole]	51.4 nM
Cc1c(-c2ncc(CC(C)C)o2)nn(-c2ccc(Cl)cc2Cl)c1-c1ccc(Cl)cc1 [Example 641, 2-(5-(4-chlorophenyl)-1-(2,4-dichlorophenyl)-4-methyl-1H-pyrazol-3-yl)-5-isobutyloxazole]	40.6 nM
Cc1c(-c2ncc(C3CCCC3)o2)nn(-c2ccc(Cl)cc2Cl)c1-c1ccc(Cl)cc1 [Example 643, 2-(5-(4-chlorophenyl)-1-(2,4-dichlorophenyl)-4-methyl-1H-pyrazol-3-yl)-5-cyclopentyloxazole]	65.5 nM
Cc1c(-c2ncc(CC(C)C)s2)nn(-c2ccc(Cl)cc2Cl)c1-c1ccc(Cl)cc1 [Example 646, 2-(5-(4-chlorophenyl)-1-(2,4-dichlorophenyl)-4-methyl-1H-pyrazol-3-yl)-5-isobutylthiazole]	112 nM
Cc1c(-c2ncc(C3CCCC3)s2)nn(-c2ccc(Cl)cc2Cl)c1-c1ccc(Cl)cc1 [Example 648, 2-(5-(4-chlorophenyl)-1-(2,4-dichlorophenyl)-4-methyl-1H-pyrazol-3-yl)-5-cyclopentylthiazole]	69.4 nM
Cc1c(-c2ncc(C(C)(C)C)s2)nn(-c2ccc(Cl)cc2Cl)c1-c1ccc(Cl)cc1 [Example 649, 5-tert-butyl-2-(5-(4-chlorophenyl)-1-(2,4-dichlorophenyl)-4-methyl-1H-pyrazol-3-yl)thiazole]	12.7 nM
Cc1c(-c2cc(C(C)(C)C)on2)nn(-c2ccc(Cl)cc2Cl)c1-c1ccc(Cl)cc1 [Example 650, 5-tert-butyl-3-(5-(4-chlorophenyl)-1-(2,4-dichlorophenyl)-4-methyl-1H-pyrazol-3-yl)isoxazole]	84.1 nM
Cc1c(-c2cc(C(C)(C)C)no2)nn(-c2ccc(Cl)cc2Cl)c1-c1ccc(Cl)cc1 [Example 651, 3-tert-butyl-5-(5-(4-chlorophenyl)-1-(2,4-dichlorophenyl)-4-methyl-1H-pyrazol-3-yl)isoxazole]	95.2 nM

System: DIO mice
Experiment: Chronic effects in DIO mice (body weight change, oral administration for 14 days)
Assay type: in vivo
Details: DIO mice (male C57BL/6J), 10 mg/kg, FIG. 1
Method: Male C57BL/6J mice weighing over 38 g were housed 1 per cage on a 12-/12-h light/dark cycle, had free access to food (rodent sterilizable diet) and water, and were experimentally native before testing. Mice were allowed at least 7 days to habituate to the experimental room prior to testing, and testing was conducted during the light period. Mice were maintained and experiments were conducted in accordance with the Institutional Animal Care.
By oral administration, animals received at a volume of 10 ml/kg for 14 days. All control animals received 10% DMSO dissolved in deionized water.
The vehicles 10% DMSO treated group were comprised of 5 mice in oral test. There were 6 mice in each of the other experimental groups (n=6 in each group). By oral administration, the losing weight was checked everyday for the drug treated group and the control group.

SMILES	Body weight change from day 0
Cc1c(-c2nnc(C3(C(F)(F)F)CC3)o2)nn(-c2ccc(Cl)cc2Cl)c1-c1ccc(Cl)cc1 [Example 132, 2-(5-(4-chlorophenyl)-1-(2,4-dichlorophenyl)-4-methyl-1H-pyrazol-3-yl)-5-(1-(trifluoromethyl)cyclopropyl)-1,3,4-oxadiazole]	observed on all days
CCc1c(-c2nnc(C3(C(F)(F)F)CC3)o2)nn(-c2ccc(Cl)cc2Cl)c1-c1ccc(Cl)cc1 [Example 155, 2-(5-(4-chlorophenyl)-1-(2,4-dichlorophenyl)-4-ethyl-1H-pyrazol-3-yl)-5-(1-(trifluoromethyl)cyclopropyl)-1,3,4-oxadiazole]	observed on all days
CC(C)(C)c1nnc(-c2nn(-c3ccc(Cl)cc3Cl)c(-c3ccc(Cl)cc3)c2Cn2cncn2)s1 [Example 502, 2-(4-((1H-1,2,4-triazol-1-yl)methyl)-5-(4-chlorophenyl)-1-(2,4-dichlorophenyl)-1H-pyrazol-3-yl)-5-tert-butyl-1,3,4-thiadiazole]	observed on all days
Cc1c(C(=O)NN2CCCCC2)nn(-c2ccc(Cl)cc2Cl)c1-c1ccc(Cl)cc1 [rimonabant, reference compound]	observed on all days
